Data on seven molecules can be found in patent publication US20060110376A1, “MDA-7 and free radicals in the treatment of cancer” (priority 2002, published 2006).

The test system of one experiment is SKOV3 cells. As to the kind of experiment: MTT assay with 4-HPR. The class given is cell-based, human. The following applies: 500 nM 4-HPR; MTT 96 h. As to the method: FIG. 35. Effect of transduction by Ad.mda-7 on the growth of the ovarian cancer cell line SKOV3 in the presence or absence of N-(4-hydroxyphenyl) retinamide (4-HPR).
SKOV3 cells (ATCC, Manassas Va.) were plated at 10,000 per well in 24 well plates. 24 h after plating cells were infected with either control virus or Ad.mda-7 virus at increasing multiplicities of viral infection. 24 h after infection, cells were treated with 500 nM 4-HPR. 96 h after 4-HPR addition, cell numbers were determined using MTT assays as described above.

In the next experiment the test system is prostate carcinoma cells. As to the kind of experiment: ROS production (DCF fluorescence, flow cytometry). Type of experiment: cell-based, human. The following applies: treated with NSC656240 or As2O3. As to the method:
(§1) Cells were seeded in 96-well plates, pretreated with NAC (5 mM) or Tiron (1 mM) for 2 h and infected with Ad.mda-7. Forty eight hours later, viability was assessed by MTT assay. […] Cells were seeded in 96-well plates, infected with Ad.mda-7 and treated with As2O3 (10 μM) or NSC656240 (400 nM). Forty eight h later, viability was assessed by MTT assay. Panel C. […] After treatment, cells were stained using DCF-DA and analyzed using flow cytometry. […] After treatment, cells were washed and stained with Annexin V-FITC conjugate. Late apoptotic and necrotic cells were excluded using PI staining. Results are the mean of three independent experiments performed with triplicate samples±S.E.

The test system of experiment [1] is prostate carcinoma cell lines (DU-145, PC-3, LNCaP). As to the kind of experiment: MTT viability assay. Type of experiment: cell-based, human. As to the method: as §1
[…] Cellular viability was assessed by MTT assay 48 h after infection (Panel A). Mitochondrial membrane potential (DiOC6(3) staining, Panel B) and apoptotic changes (Annexin V staining, Panel C) were assessed 18 h (LNCaP cells) and 24 h (DU-145, PC-3 and P69 cells) after infection.
MTT Viability Assays. This method was performed as described (Lebedeva et al., 2000, Cancer Research 60:6052-6060). […] At the indicated time points, medium was removed, and fresh medium containing 0.5 mg/ml MTT was added to each well. The cells were incubated at 37° C. for 4 h and then an equal volume of solubilization solution (0.01N HCl in 10% SDS) was added to each well and mixed thoroughly. The optical density from the plates was read on a BioRad Microplate Reader Model 550 at 595 nm.

The test system of experiment [2] is pancreatic cancer cell lines. As to the kind of experiment: Western blotting of K-ras and MDA-7 protein. The class given is cell-based, human. From the text:
FIG. 43. MDA-7 expression in pancreatic cancer cell lines in the presence or absence of Ad.mda-7, Ad.K-rasAS, or NSC656243. The presence of MDA-7 in mutant K-ras cell lines requires expression of both mda-7 and the antisense K-ras construct, and is potentiated by NSC656243.
FIG. 45. The MDA-7 expression observed in the PANC-1 or BxPC-3 cell lines following administration of Ad.mda-7 in combination with either NSC656240 or Ar2O3 is abrogated by NAC administration.
Preparation of Cell Extracts and Western Blotting Analysis. Cells were washed 2× with cold PBS and lysed on ice for 30 min in […] of cold RIPA buffer [50 mM Tris-HCl (pH 8.0), 150 mM NaCl, 0.1% SDS, 1% NP40, and 0.5% sodium deoxycholate] with freshly added 0.1 mg/ml phenylmethylsulfonyl fluoride, 1 mM sodium orthovanadate, and 1 mg/ml aprotinin. After cell debris were removed by centrifugation at 14,000 g for 10 min at 4° C., protein concentrations were determined using the Bio-Rad protein assay system (Bio-Rad Laboratories, Richmond, Calif.). Aliquots of cell extracts containing […] of total protein were resolved in 12% SDS-PAGE and transferred to Immobilon-P PVDF membranes (Millipore Corp., Bedford, Mass.). Filters were blocked for 1 h at room temperature in Blotto A [5% nonfat milk powder in TBS-T: 10 mM Tris-HCl (pH 8.0), 150 mM NaCl, 0.05% Tween 20], and then incubated for 1 h at room temperature in Blotto A containing a 1:1000 dilution of rabbit anti MDA-7 polyclonal antibody. After washing in TBS-T buffer (3×5 min, RT), filters were incubated for 1 h at room temperature in Blotto A containing a 1:10,000 dilution of peroxidase conjugated anti-rabbit secondary antibody (Amersham, Arlington Heights, Ill.). After washing in TBS-T, ECL was performed according to the manufacturer's recommendation.

The subject of experiment [3] is normal cells (immortalized human astrocytes or melanocytes). The experiment in a line: MTT viability assay. To be noted: Ad.mda-7 100 p.f.u./cell. The class given is cell-based. As to the method:
(§2) MTT Viability Assays. Cell viability was assessed by MTT assays as described (Lebedeva et al., 2000, Cancer Research 60:6052-6060). Briefly, cells were seeded in 96-well tissue culture plates (1.5×10^3 cells per well) and treated with various agents. At the indicated times, medium was removed, and fresh medium containing 0.5 mg/ml MTT was added to each well. The cells were incubated at 37° C. for 4 h and then an equal volume of solubilization solution (0.01N HCl in 10% SDS) was added to each well and mixed thoroughly. The optical density from the plates was read on a BioRad Microplate Reader Model 550 at 595 nm.

Experiment [4] concerns pancreatic carcinoma cells. As to the kind of experiment: ROS production (flow cytometry). Type of experiment: cell-based, human. As to the method: FIG. 46. Combined treatment by NSC656240 or Ar2O3 and Ad.mda-7 causes overproduction of ROS in pancreatic carcinoma cells.
Assessment of ROS Production. To determine ROS production, cells were stained with 2.5 μM HE or 5 μM DCFH-DA in PBS for 30 min at 37° C. in the dark. Immediately after staining, cells were analyzed by flow cytometry (FACSscan, Becton-Dickinson, Mountain View, Calif.), and data were analyzed using CellQuest software, version 3.1 (Becton Dickinson). For inhibition experiments, NAC (Sigma) was added 2 h prior to infection with Ad.mda-7. In all cases, cells were gated to exclude cell debris.

In experiment [5] the test system is pancreatic carcinoma cells. As to the kind of experiment: MTT viability assay. Type of experiment: cell-based, human. To be noted: Ad.mda-7 100 p.f.u./cell. As to the method: as §2
Experiment [6] concerns pancreatic carcinoma cells. The experiment in a line: Apoptosis (annexin V exposure, hypodiploid A0 cells). The following applies: annexin V exposure and A0 population. The class given is cell-based, human. From the text:
FIG. 39. Combined treatment of pancreatic carcinoma cells by NSC656240 and Ad.mda-7 increases levels of annexin V in pancreatic cancer cells irrespective of K-ras status.
FIG. 40. NAC administration prevents the apoptosis of pancreatic cancer cells induced by treatment of pancreatic carcinoma cells by NSC656240 or Ar2O3 and Ad.mda-7.
FIG. 41. Combined treatment of pancreatic carcinoma cells by NSC656240 or Ar2O3 and Ad.mda-7 causes apoptosis irrespective of K-ras status.
Annexin V Binding Assays. Cells were trypsinized, washed once with complete medium and stained with FITC-labeled Annexin-V (kit from Oncogene Research Products, Boston, Mass.) according to the manufacturer's instructions. Flow cytometry was performed immediately after staining.
Cell Cycle Analysis. Cells were trypsinized, washed 2× with PBS and fixed in 70% ethanol overnight at −20° C. Then cells were washed 2 times with PBS, and aliquots of 1×10^6 cells were resuspended in 1 ml of PBS containing 1 mg/ml of RNase A and 0.5 mg/ml of propidium iodide. After 30 min incubation, cells were analyzed by flow cytometry using a FACScan flow cytometer (Becton Dickinson, San Jose, Calif.).

Experiment [7] has as its system pancreatic cancer cells stably transformed to express MDA-7. As to the kind of experiment: Apoptosis and cell death in cells stably expressing MDA-7. Type of experiment: cell-based, human. From the text:
FIG. 49. Induction of apoptosis in pancreatic cancer cell lines (PANC-1) stably expressing MDA-7.
FIG. 50. Induction of apoptosis in pancreatic cancer cell lines (Mia PaCa-2) stably expressing MDA-7.
FIG. 51. Induction of apoptosis in pancreatic cancer cell lines (FM516 or BxPC-3) stably expressing MDA-7.

The test system of experiment [8] is normal immortal P69 prostate epithelial cells. As to the kind of experiment: MTT viability assay. To be noted: PK11195 50 μM. The class given is cell-based, human. As to the method:
as §1
(§3) FIG. 33A-C. […] Prostate cancer and normal immortalized P69 cells were pretreated with inhibitors of MPT CsA (100 nM) or BA (50 μM), with the enhancer of MPT PK11195 (50 μM) or with the pan-caspase inhibitor z-VAD.fmk (50 μM) for 2 h following infection with Ad.vec or Ad.mda-7. Cellular viability was assessed by MTT assay 48 h after infection (Panel A). Mitochondrial membrane potential (DiOC6(3) staining, Panel B) and apoptotic changes (Annexin V staining, Panel C) were assessed 18 h (LNCaP cells) and 24 h (DU-145, PC-3 and P69 cells) after infection.
MTT Viability Assays. […] The optical density from the plates was read on a BioRad Microplate Reader Model 550 at 595 nm.

Experiment [9] has as its system prostate cancer cell lines (DU-145, PC-3, LNCaP). As to the kind of experiment: Mitochondrial ΔΨm (DiOC6(3)) and ROS time course. The class given is cell-based, human. To be noted: CsA, BA pretreatment; 18 h (LNCaP), 24 h (DU-145, PC-3). As to the method: as §3
The test system of another experiment is RT2 cells. As to the kind of experiment: MTT assay with kinase inhibitors. The class given is cell-based, rat.

The structures appear in SMILES notation. Peptide text beside a SMILES is read from it. * marks the point of attachment. Cbz = O=C(OCc1ccccc1)*; CH2F = FC*

Protocol for RT2 cells: Data are the means±SEM of 3 experiments # p<0.05 less than control treated cells, * p<0.05 less than corresponding value in cells not infected with Ad-mda-7. Panel C. […] Data are the means±SEM of 3 separate experiments. […] Data are the means±SEM of 3 separate experiments. […] Cells were incubated with vehicle or SP600125 (10 μM) 30 min prior to irradiation and growth determined via MTT assay 4 days after irradiation (±SEM, n=4).
The MTT test is based on the enzymatic reduction of the tetrazolium salt MTT in living, metabolically active cells. […] Twenty-four hours after infection/protein treatment, cells were treated with kinase inhibitor drugs and then irradiated. […] The plates were read on a Dynatech MR600 Microplate Reader at 540 nm. All data were normalized relative to the control, non-treated unirradiated cells of the corresponding cell type.

On to `CC1=C(/C=C/C(C)=C/C=C/C(C)=C/C(=O)Nc2ccc(O)cc2)C(C)(C)CCC1` [4-HPR, N-(4-hydroxyphenyl) retinamide], for which the “effect of 4-HPR on toxic effects of MDA-7 expression” value with SKOV3 cells is given as “potentiated the toxic effects of MDA-7 expression”.
Regarding `O=C1c2ccsc2C(=O)c2sc(CO)cc21` [NSC656240], the ROS levels entry with prostate carcinoma cells was “ROS levels increased proportionally”. The “effect of ROS-producing agent on cell death of Ad.mda-7-infected cells” value in experiment [1] (As2O3 10 μM, NSC656240 400 nM, 48 h) is recorded as “potentiated cell death”. Also, the K-ras protein expression result in experiment [2] (alone or in combination with Ad.mda-7) is “does not down-regulate K-ras protein expression”. The “MDA-7 protein expression and secretion, combined treatment with Ad.mda-7” value in [2] (wt and mutated K-ras pancreatic cancer cell lines) was “leads to MDA-7 protein expression and secretion”. The “growth, combinational treatment with Ad.mda-7” value in [3] was “does not affect growth of normal cells”. The “ROS production, combined treatment with Ad.mda-7” value in experiment [4] is recorded as “Caused ROS overproduction”. Further, in experiment [5], the “cell death, combinational treatment with Ad.mda-7” value is given as “caused death of these cells irrespective of their K-ras status”. In experiment [6], the “apoptosis, combination treatment with Ad.mda-7” value was “caused apoptosis in pancreatic carcinoma cells independently of their K-ras status”. In addition, in [7], the “apoptosis and cell death” value was “caused apoptosis and cell death”.
On to `CCC(C)N(C)C(=O)c1cc2ccccc2c(-c2ccccc2Cl)n1` (stereo not drawn) [PK11195], for which the “effect of PK11195 on Ad.mda-7-induced killing” value in experiment [1] (PK11195 50 μM) was “enhanced Ad.mda-7-induced killing”. Also, in experiment [8], the “effect of PK11195 on MPT, annexin V staining and killing” value is recorded as “without inducing any of these changes in P69 cells”.
For the molecule `COC(=O)C[C@H](NC(=O)[C@H](C)NC(=O)[C@@H](NC(=O)OCc1ccccc1)C(C)C)C(=O)CF` [z-VAD.fmk] (Cbz-Val-Ala-Asp(OMe)-CH2F), in experiment [1] (z-VAD.fmk 50 μM), the “effect of z-VAD.fmk on cell death” value is listed as “inhibited cell death”.
Turning to `CO[C@H](C/C=C\C=C\CC/C=C/C[C@H](C)/C=C/C(=C\C(=O)O)CC(=O)O)/C(C)=C\C=C(/C)C(=O)O` [BA, bongkrekic acid], the “effect of MPT inhibitor on cell death of Ad.mda-7-infected cells” value in experiment [1] (CsA (200 nM), BA (50 μM) pretreatment 2 h) is given as “prevented cell death”. Also, the “effect on Ad.mda-7-induced decline in ΔΨm” value in experiment [9] is on record as “abrogated the decline in ΔΨm”.
As to `O=S(=O)(O)c1cc(O)c(O)c(S(=O)(=O)O)c1` [Tiron], the “effect of antioxidant on cell death promoting activity of Ad.mda-7” value in [1] (NAC 5 mM, Tiron 1 mM, 48 h) was “abrogated”.
For `COc1cccc(-c2cc(=O)c3ccccc3o2)c1N` [PD98059], the “effect of combined MEK1/2 and PI3K inhibition on proliferation of Ad.mda-7 infected cells” value with RT2 cells (10 μm PD98059 + 5 μm LY294002) is recorded as “significant additional reduction in proliferation”. Also, the “effect of single kinase inhibitor on anti-proliferative effects of Ad.mda-7” value in the experiment with RT2 cells (10 μm PD98059 or 5 μm LY294002) is given as “neither MEK1/2 nor PI3K enhanced the anti-proliferative effects”.
